Results taken from ChEMBL document CHEMBL3734705, “Synthesis and in vitro cytotoxicity of novel C-12 substituted-14-deoxy-andrographolide derivatives as potent anti-cancer agents” (2015).

Legend:
[1] = Cytotoxicity against human MOLT4 cells assessed as growth level at 10 uM after 48 hrs by SRB assay; assay type: functional, MOLT-4
[2] = Cytotoxicity against human RPMI8226 cells assessed as growth level at 10 uM after 48 hrs by SRB assay; assay type: functional, RPMI-8226
EKVX = experiment: Cytotoxicity against human EKVX cells assessed as growth level at 10 uM after 48 hrs by SRB assay; assay type: functional
[3] = Cytotoxicity against human HOP62 cells assessed as growth level at 10 uM after 48 hrs by SRB assay; assay type: functional, HOP-62
[4] = Cytotoxicity against human HOP92 cells assessed as growth level at 10 uM after 48 hrs by SRB assay; assay type: functional, HOP-92
[5] = Cytotoxicity against human HCT116 cells assessed as growth level at 10 uM after 48 hrs by SRB assay; assay type: functional, HCT-116
[6] = Cytotoxicity against human SW620 cells assessed as growth level at 10 uM after 48 hrs by SRB assay; assay type: functional, SW-620
[7] = Cytotoxicity against human SF268 cells assessed as growth level at 10 uM after 48 hrs by SRB assay; assay type: functional, SF-268
[8] = Cytotoxicity against human LOXIMVI cells assessed as growth level at 10 uM after 48 hrs by SRB assay; assay type: functional, LOX IMVI
Malme-3M = experiment: Cytotoxicity against human MALME-3M cells assessed as growth level at 10 uM after 48 hrs by SRB assay; assay type: functional
MDA-MB-435 [9] = experiment: Cytotoxicity against human MDA-MB-435 cells assessed as growth level at 10 uM after 48 hrs by SRB assay; assay type: functional
[10] = Cytotoxicity against human UACC62 cells assessed as growth level at 10 uM after 48 hrs by SRB assay; assay type: functional, UACC-62
[11] = Cytotoxicity against human OVCAR4 cells assessed as growth level at 10 uM after 48 hrs by SRB assay; assay type: functional, OVCAR-4
[12] = Cytotoxicity against human NCI-ADR-RES cells assessed as growth level at 10 uM after 48 hrs by SRB assay; assay type: functional
A498 = experiment: Cytotoxicity against human A498 cells assessed as growth level at 10 uM after 48 hrs by SRB assay; assay type: functional
[13] = Cytotoxicity against human Hs578T cells assessed as growth level at 10 uM after 48 hrs by SRB assay; assay type: functional, Hs-578T
MDA-MB-468 [14] = experiment: Cytotoxicity against human MDA-MB-468 cells assessed as growth level at 10 uM after 48 hrs by SRB assay; assay type: functional
CCRF-CEM [15] = experiment: Cytotoxicity against human CCRF-CEM cells assessed as growth inhibition at 10 uM after 48 hrs by SRB assay; assay type: functional; conditions: read-out: GI
[16] = Cytotoxicity against human HL-60(TB) cells assessed as growth inhibition at 10 uM after 48 hrs by SRB assay; assay type: functional; conditions: HL-60, 48 h, read-out: GI
K562 = experiment: Cytotoxicity against human K562 cells assessed as growth inhibition at 10 uM after 48 hrs by SRB assay; assay type: functional; conditions: K562, 48 h, read-out: GI
[17] = Cytotoxicity against human RPMI8226 cells assessed as growth inhibition at 10 uM after 48 hrs by SRB assay; assay type: functional; conditions: RPMI-8226, 48 h, read-out: GI
SR = experiment: Cytotoxicity against human SR cells assessed as growth inhibition at 10 uM after 48 hrs by SRB assay; assay type: functional; conditions: read-out: GI
[18] = Cytotoxicity against human HOP92 cells assessed as growth inhibition at 10 uM after 48 hrs by SRB assay; assay type: functional; conditions: HOP-92, 48 h, read-out: GI
NCI-H226 = experiment: Cytotoxicity against human NCI-H226 cells assessed as growth inhibition at 10 uM after 48 hrs by SRB assay; assay type: functional; conditions: NCI-H226, 48 h, read-out: GI
NCI-H23 = experiment: Cytotoxicity against human NCI-H23 cells assessed as growth inhibition at 10 uM after 48 hrs by SRB assay; assay type: functional; conditions: NCI-H23, 48 h, read-out: GI
NCI-H322M = experiment: Cytotoxicity against human NCI-H322M cells assessed as growth inhibition at 10 uM after 48 hrs by SRB assay; assay type: functional; conditions: read-out: GI
NCI-H460 = experiment: Cytotoxicity against human NCI-H460 cells assessed as growth inhibition at 10 uM after 48 hrs by SRB assay; assay type: functional; conditions: NCI-H460, 48 h, read-out: GI
[19] = Cytotoxicity against human HCC2998 cells assessed as growth inhibition at 10 uM after 48 hrs by SRB assay; assay type: functional; conditions: HCC 2998, 48 h, read-out: GI
[20] = Cytotoxicity against human SW620 cells assessed as growth inhibition at 10 uM after 48 hrs by SRB assay; assay type: functional; conditions: SW-620, 48 h, read-out: GI
MDA-MB-435 [21] = experiment: Cytotoxicity against human MDA-MB-435 cells assessed as growth inhibition at 10 uM after 48 hrs by SRB assay; assay type: functional; conditions: MDA-MB-435, 48 h, read-out: GI
[22] = Cytotoxicity against human UACC62 cells assessed as growth inhibition at 10 uM after 48 hrs by SRB assay; assay type: functional; conditions: UACC-62, 48 h, read-out: GI
[23] = Cytotoxicity against human IGROV1 cells assessed as growth inhibition at 10 uM after 48 hrs by SRB assay; assay type: functional; conditions: IGROV-1, 48 h, read-out: GI
[24] = Cytotoxicity against human OVCAR8 cells assessed as growth inhibition at 10 uM after 48 hrs by SRB assay; assay type: functional; conditions: OVCAR-8, 48 h, read-out: GI
[25] = Cytotoxicity against human SKOV3 cells assessed as growth inhibition at 10 uM after 48 hrs by SRB assay; assay type: functional; conditions: SK-OV-3, 48 h, read-out: GI
ACHN = experiment: Cytotoxicity against human ACHN cells assessed as growth inhibition at 10 uM after 48 hrs by SRB assay; assay type: functional; conditions: read-out: GI
[26] = Cytotoxicity against human PC3 cells assessed as growth inhibition at 10 uM after 48 hrs by SRB assay; assay type: functional; conditions: PC-3, 48 h, read-out: GI
[27] = Cytotoxicity against human DU145 cells assessed as growth inhibition at 10 uM after 48 hrs by SRB assay; assay type: functional; conditions: DU-145, 48 h, read-out: GI
MCF7 = experiment: Cytotoxicity against human MCF7 cells assessed as growth inhibition at 10 uM after 48 hrs by SRB assay; assay type: functional; conditions: MCF7, 48 h, read-out: GI
MDA-MB-468 [28] = experiment: Cytotoxicity against human MDA-MB-468 cells assessed as growth inhibition at 10 uM after 48 hrs by SRB assay; assay type: functional; conditions: MDA-MB-468, 48 h, read-out: GI
CCRF-CEM [29] = experiment: Cytotoxicity against human CCRF-CEM cells assessed as growth level at 10 uM after 48 hrs by SRB assay; assay type: functional
HT-29 = experiment: Cytotoxicity against human HT-29 cells assessed as growth level at 10 uM after 48 hrs by SRB assay; assay type: functional
[30] = Cytotoxicity against human TK10 cells assessed as growth level at 10 uM after 48 hrs by SRB assay; assay type: functional, TK-10

## C=C1CC[C@@H]2[C@](C)(COC(C)=O)[C@H](OC(C)=O)CC[C@@]2(C)[C@@H]1CC(NCc1ccccc1)C1=CCOC1=O (mixture of isomers)
[1]
  Activity: -3.86%
[2]
  Activity: 3.18%
EKVX
  Activity: 53.91%
[3]
  Activity: 89.01%
[4]
  Activity: 41.66%
[5]
  Activity: 42.32%
[6]
  Activity: 47.31%
[7]
  Activity: 62.15%
[8]
  Activity: 44.58%
Malme-3M
  Activity: 77.12%
MDA-MB-435 [9]
  Activity: 27.9%
[10]
  Activity: 38.81%
[11]
  Activity: 35.88%
[12]
  Activity: 23.47%
A498
  Activity: 56.22%
[13]
  Activity: 86.43%
MDA-MB-468 [14]
  Activity: 22.86%
CCRF-CEM [15]
  inhibition of growth at 10 µM: 79.1%
[16]
  inhibition of growth at 10 µM: 9.93%
K562
  inhibition of growth at 10 µM: 75.3%
[17]
  inhibition of growth at 10 µM: 96.8%
SR
  inhibition of growth at 10 µM: 79.1%
[18]
  inhibition of growth at 10 µM: 58.3%
NCI-H226
  inhibition of growth at 10 µM: 88.6%
NCI-H23
  inhibition of growth at 10 µM: 42.6%
NCI-H322M
  inhibition of growth at 10 µM: 23%
NCI-H460
  inhibition of growth at 10 µM: 51.6%
[19]
  inhibition of growth at 10 µM: 6.31%
[20]
  inhibition of growth at 10 µM: 52.7%
MDA-MB-435 [21]
  inhibition of growth at 10 µM: 72.1%
[22]
  inhibition of growth at 10 µM: 61.2%
[23]
  inhibition of growth at 10 µM: 37.1%
[24]
  inhibition of growth at 10 µM: 71.8%
[25]
  inhibition of growth at 10 µM: 20.8%
ACHN
  inhibition of growth at 10 µM: 53.6%
[26]
  inhibition of growth at 10 µM: 89.9%
[27]
  inhibition of growth at 10 µM: 32.8%
MCF7
  inhibition of growth at 10 µM: 70.2%
MDA-MB-468 [28]
  inhibition of growth at 10 µM: 77.1%
CCRF-CEM [29]
  Activity: 20.9%

## C=C1CC[C@@H]2[C@](C)(COC(C)=O)[C@H](OC(C)=O)CC[C@@]2(C)[C@@H]1CC(Nc1ccc(S(=O)(=O)NC(C)=O)cc1)C1=CCOC1=O (mixture of isomers)
[1]
  Activity: 0.12%
[2]
  Activity: -16.18%
EKVX
  Activity: 57.45%
[3]
  Activity: 81.97%
[4]
  Activity: 20.95%
[5]
  Activity: -63.92%
HT-29
  Activity: -69.92%
[6]
  Activity: -65.65%
[7]
  Activity: 6.72%
[8]
  Activity: -85.84%
Malme-3M
  Activity: -43.58%
MDA-MB-435 [9]
  Activity: -38.84%
[10]
  Activity: -12.47%
[11]
  Activity: 26.08%
[12]
  Activity: 11.87%
A498
  Activity: 73.42%
[30]
  Activity: 2.78%
[13]
  Activity: 32.45%
MDA-MB-468 [14]
  Activity: -53.94%
CCRF-CEM [29]
  Activity: -27.89%
